Measured values reported in publication PMC10892041, “Vanadium Complexes with Thioanilide Derivatives of Amino Acids: Inhibition of Human Phosphatases and Specificity in Various Cell Models of Metabolic Disturbances” (Pharmaceuticals, 2024).
Read-outs that look alike come from different tables or passages of the source.

Columns and labels:
PTP1B [1] = biological target: T1, PTP1B (Homo sapiens, UniProt P18031); test: Inhibition of human recombinant tyrosine phosphatase PTP1B (DiFMUP fluorescence); assay type: biochemical; conditions: for Inhibition of PTP1B, percentage of inhibition of the control: 1 µM, control solvent only, SD did not exceed 6%; for Log IC50 ± SD PTP1B: logarithm of IC50; for IC50: read-out: IC50 PTP1B
T1 construct: purchased Sigma-Aldrich
T1 sequence (P18031 1-435): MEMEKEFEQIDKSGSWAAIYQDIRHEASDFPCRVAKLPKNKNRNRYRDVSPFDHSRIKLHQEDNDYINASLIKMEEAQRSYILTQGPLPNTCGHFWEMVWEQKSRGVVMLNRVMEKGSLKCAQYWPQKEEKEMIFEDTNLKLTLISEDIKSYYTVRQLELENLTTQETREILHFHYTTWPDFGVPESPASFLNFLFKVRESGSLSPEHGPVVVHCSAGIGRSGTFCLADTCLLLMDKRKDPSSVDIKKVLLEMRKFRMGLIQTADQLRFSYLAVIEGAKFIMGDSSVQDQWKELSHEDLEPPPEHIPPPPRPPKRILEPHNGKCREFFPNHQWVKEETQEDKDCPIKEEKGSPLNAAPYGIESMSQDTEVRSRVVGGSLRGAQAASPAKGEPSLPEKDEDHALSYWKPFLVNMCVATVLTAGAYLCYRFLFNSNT
In short: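 Human recombinant PTP1B (final 50 ng/mL) in buffer of 25 mM MOPS, 50 mM NaCl, 1 mM DTT and 0.05% Tween-20 (pH 7.0) was dispensed onto test compound in black 384-well plates. After 10 min, DiFMUP was added to 0.1 mM. Plates were incubated 20 min at 23 °C and fluorescence read (ex 355, em 560 nm). Assays were run in triplicate, with inhibition relative to enzyme-plus-vehicle control and IC50 fitted in GraphPad Prism.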

LAR = biological target: T2, LAR (Homo sapiens, UniProt P10586); test: Inhibition of human recombinant tyrosine phosphatase LAR (DiFMUP fluorescence); assay type: biochemical; conditions: for Inhibition of LAR, percentage of inhibition of the control: 1 µM, control solvent only, SD did not exceed 6%
T2 sequence (P10586 1352-1607 limits assumed): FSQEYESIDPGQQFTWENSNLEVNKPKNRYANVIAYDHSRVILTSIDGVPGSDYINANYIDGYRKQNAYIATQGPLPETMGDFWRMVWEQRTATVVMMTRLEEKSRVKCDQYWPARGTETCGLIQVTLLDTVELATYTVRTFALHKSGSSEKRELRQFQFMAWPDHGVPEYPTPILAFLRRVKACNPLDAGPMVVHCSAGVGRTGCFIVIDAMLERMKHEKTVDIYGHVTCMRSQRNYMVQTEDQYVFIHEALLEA
In short: (§1)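 Human recombinant phosphatases (SHP1 400 ng/mL, SHP2 50 ng/mL, LAR 5 ng/mL final) were pre-incubated 10 min with compound in 25 mM MOPS pH 7.0, 50 mM NaCl, 1 mM DTT, 0.05% Tween-20. DiFMUP (0.1 mM final) was added for 20 min at 23 °C and fluorescence read at 355/560 nm. Screening used 1 µM compound (% inhibition vs vehicle); IC50 also reported.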

SHP1 = biological target: T3, SHP1 (Homo sapiens, UniProt P29350); test: Inhibition of human recombinant tyrosine phosphatase SHP1 (DiFMUP fluorescence); assay type: biochemical; conditions: for Inhibition of SHP1, percentage of inhibition of the control: 1 µM, control solvent only, SD did not exceed 6%; for Log IC50 ± SD SHP1: logarithm of IC50
T3 construct: purchased Sigma-Aldrich
In short: as §1

SHP2 = biological target: T4, SHP2 (Homo sapiens, UniProt Q06124); test: Inhibition of human recombinant tyrosine phosphatase SHP2 (DiFMUP fluorescence); assay type: biochemical; conditions: for Inhibition of SHP2, percentage of inhibition of the control: 1 µM, control solvent only, SD did not exceed 6%
T4 construct: purchased Sigma-Aldrich
T4 sequence (Q06124 1-593): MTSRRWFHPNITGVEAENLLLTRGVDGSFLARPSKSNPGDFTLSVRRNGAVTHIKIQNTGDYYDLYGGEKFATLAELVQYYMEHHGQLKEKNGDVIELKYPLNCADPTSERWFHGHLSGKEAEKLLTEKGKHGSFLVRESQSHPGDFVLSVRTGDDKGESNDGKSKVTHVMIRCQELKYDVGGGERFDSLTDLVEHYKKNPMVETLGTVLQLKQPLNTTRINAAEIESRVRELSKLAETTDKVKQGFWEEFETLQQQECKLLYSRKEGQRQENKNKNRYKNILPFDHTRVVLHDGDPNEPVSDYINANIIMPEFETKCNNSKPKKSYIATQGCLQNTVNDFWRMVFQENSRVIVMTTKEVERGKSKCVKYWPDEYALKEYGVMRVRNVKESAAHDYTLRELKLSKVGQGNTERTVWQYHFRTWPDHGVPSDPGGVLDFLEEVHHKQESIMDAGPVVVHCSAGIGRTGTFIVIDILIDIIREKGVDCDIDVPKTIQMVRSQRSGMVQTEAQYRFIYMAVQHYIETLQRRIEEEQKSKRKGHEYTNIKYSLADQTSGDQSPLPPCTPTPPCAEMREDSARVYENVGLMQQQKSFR
In short: as §1

PTP1B [2] = biological target: T1, PTP1B; conditions: cited from earlier work
myocytes C2C12 = test: Viability of myocytes C2C12 after 24 h incubation (resazurin-based reagent); conditions: 50 µM; 24 h incubation; control solvent only

T3 sequence (P29350 whole entry): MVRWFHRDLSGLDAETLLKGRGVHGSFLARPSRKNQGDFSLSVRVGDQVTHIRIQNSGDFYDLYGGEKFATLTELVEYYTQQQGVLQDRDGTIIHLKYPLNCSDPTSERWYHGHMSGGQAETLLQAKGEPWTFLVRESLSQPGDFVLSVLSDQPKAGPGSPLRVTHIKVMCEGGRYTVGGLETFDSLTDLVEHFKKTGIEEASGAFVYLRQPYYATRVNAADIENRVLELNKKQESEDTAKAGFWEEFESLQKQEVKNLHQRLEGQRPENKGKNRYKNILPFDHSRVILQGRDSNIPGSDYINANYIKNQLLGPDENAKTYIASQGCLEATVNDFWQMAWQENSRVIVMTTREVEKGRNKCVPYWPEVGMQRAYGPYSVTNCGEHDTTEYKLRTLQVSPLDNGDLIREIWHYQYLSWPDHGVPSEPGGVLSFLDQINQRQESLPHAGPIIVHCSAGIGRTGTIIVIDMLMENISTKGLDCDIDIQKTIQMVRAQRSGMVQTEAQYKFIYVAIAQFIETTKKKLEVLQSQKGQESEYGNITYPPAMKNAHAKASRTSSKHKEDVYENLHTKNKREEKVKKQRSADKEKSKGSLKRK

| SMILES | Inhibition of PTP1B, percentage of inhibition of the control (PTP1B [1]) | Log IC50 ± SD PTP1B (PTP1B [1]) | IC50 (PTP1B [1]) | IC50 (LAR) | Inhibition of LAR, percentage of inhibition of the control (LAR) | IC50 (SHP1) | Inhibition of SHP1, percentage of inhibition of the control (SHP1) | Log IC50 ± SD SHP1 (SHP1) | IC50 (SHP2) | Inhibition of SHP2, percentage of inhibition of the control (SHP2) | IC50 (PTP1B [2]; lower end of published range) | IC50 (PTP1B [2]; upper end of published range) | Cell viability of myocytes C2C12, % of the control (myocytes C2C12) |
| --- | --- | --- | --- | --- | --- | --- | --- | --- | --- | --- | --- | --- | --- |
| O=S(=O)([O-])[O-].[O]=[V+2] [VOSO4, reference compound] | 62% | −7.00 ± 0.07 | 99 nM | 95 nM | 44% | 17 nM | 70% | −7.77 ± 0.02 | 13 nM | 77% | 18 nM | 380 nM | – |
| Cc1occc(=O)c1[O-].Cc1occc(=O)c1[O-].[O]=[V+2] [BMOV, bis(maltolato)oxidovanadium(IV), reference compound] | 77% | −6.83 ± 0.02 | 149 nM | 140 nM | 58% | 14 nM | 76% | −7.86 ± 0.03 | 8 nM | 82% | – | – | 90 ± 4% |
